# Experimental data published in patent publication US6908947B2, “Sulfonamide-substituted fused 7-membered ring compounds, their use as a medicament, and pharmaceutical preparations comprising them” (Aventis Pharma Deutschland GmbH, priority 1997, dated 2005).
row,melting point [°C],SMILES
1,159 to 161,"CCc1ccc(S(=O)(=O)N[C@@H]2c3cc([N+](=O)[O-])ccc3CCC[C@H]2O)cc1 (relative stereo) [Example 20, trans-5-[N-(4-Ethylphenyl)-sulfonylamino]-3-nitro-6,7,8,9-tetrahydro-5H-benzocyclohepten-6-ol]"
2,128 to 128.2,"O=S(=O)(N[C@@H]1c2ccccc2CCC[C@H]1O)c1ccccc1 (relative stereo) [Example 16, trans-5-(N-Phenylsulfonylamino)-6,7,8,9-tetrahydro-5H-benzocyclohepten-6-ol]"
3,140 to 141,"COc1ccc(S(=O)(=O)N[C@@H]2c3ccccc3CCC[C@H]2O)cc1 (relative stereo) [Example 18, trans-5-[N-(4-Methoxyphenyl)-sulfonylamino]-6,7,8,9-tetrahydro-5H-benzocyclohepten-6-ol]"
4,143 to 145,"CN(C1CCCOc2ccccc21)S(C)(=O)=O (stereo not drawn) [Example 8, 5-(N-Methyl-N-methylsulfonylamino)-2,3,4,5-tetrahydro-1-benzoxepine]"
5,124.5 to 125.1,"Cc1ccc(S(=O)(=O)N[C@@H]2c3ccccc3CCC[C@H]2O)cc1 (relative stereo) [Example 17, trans-5-[N-(4-Methylphenyl)-sulfonylamino]-6,7,8,9-tetrahydro-5H-benzocyclo hepten-6-ol]"
6,172 to 173,"O=S(=O)(N[C@@H]1c2ccccc2CCC[C@H]1O)c1ccc(Cl)cc1 (relative stereo) [Example 19, trans-5-[N-(4-Chlorophenyl)-sulfonylamino]-6,7,8,9-tetrahydro-5H-benzocyclohepten-6-ol]"
